In US10758534B2 (Vertex Pharmaceuticals Incorporated, priority 2014, dated 2020):

Each molecule was assayed against T1, F508del (Homo sapiens, UniProt P13569, DEL508-508) (assay: Protocol 1: membrane potential optical assay (FLIPR III, voltage sensing dye), identification of potentiator compounds). Settings: Table 3, compounds of Table 1.
T1 construct: expressed in transfected cells
Format: cell-based
In short: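 NIH3T3 F508del cells, 27° C × 24 hrs; compound/DMSO pretreat → redistribution dye load → single forskolin addition with Cl⁻ gradient (gluconate-substituted bath, HEPES pH 7.4). FLIPR III membrane-potential fluorescence read.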

T1 sequence (P13569 with tags, fused parts or gaps DEL508-508): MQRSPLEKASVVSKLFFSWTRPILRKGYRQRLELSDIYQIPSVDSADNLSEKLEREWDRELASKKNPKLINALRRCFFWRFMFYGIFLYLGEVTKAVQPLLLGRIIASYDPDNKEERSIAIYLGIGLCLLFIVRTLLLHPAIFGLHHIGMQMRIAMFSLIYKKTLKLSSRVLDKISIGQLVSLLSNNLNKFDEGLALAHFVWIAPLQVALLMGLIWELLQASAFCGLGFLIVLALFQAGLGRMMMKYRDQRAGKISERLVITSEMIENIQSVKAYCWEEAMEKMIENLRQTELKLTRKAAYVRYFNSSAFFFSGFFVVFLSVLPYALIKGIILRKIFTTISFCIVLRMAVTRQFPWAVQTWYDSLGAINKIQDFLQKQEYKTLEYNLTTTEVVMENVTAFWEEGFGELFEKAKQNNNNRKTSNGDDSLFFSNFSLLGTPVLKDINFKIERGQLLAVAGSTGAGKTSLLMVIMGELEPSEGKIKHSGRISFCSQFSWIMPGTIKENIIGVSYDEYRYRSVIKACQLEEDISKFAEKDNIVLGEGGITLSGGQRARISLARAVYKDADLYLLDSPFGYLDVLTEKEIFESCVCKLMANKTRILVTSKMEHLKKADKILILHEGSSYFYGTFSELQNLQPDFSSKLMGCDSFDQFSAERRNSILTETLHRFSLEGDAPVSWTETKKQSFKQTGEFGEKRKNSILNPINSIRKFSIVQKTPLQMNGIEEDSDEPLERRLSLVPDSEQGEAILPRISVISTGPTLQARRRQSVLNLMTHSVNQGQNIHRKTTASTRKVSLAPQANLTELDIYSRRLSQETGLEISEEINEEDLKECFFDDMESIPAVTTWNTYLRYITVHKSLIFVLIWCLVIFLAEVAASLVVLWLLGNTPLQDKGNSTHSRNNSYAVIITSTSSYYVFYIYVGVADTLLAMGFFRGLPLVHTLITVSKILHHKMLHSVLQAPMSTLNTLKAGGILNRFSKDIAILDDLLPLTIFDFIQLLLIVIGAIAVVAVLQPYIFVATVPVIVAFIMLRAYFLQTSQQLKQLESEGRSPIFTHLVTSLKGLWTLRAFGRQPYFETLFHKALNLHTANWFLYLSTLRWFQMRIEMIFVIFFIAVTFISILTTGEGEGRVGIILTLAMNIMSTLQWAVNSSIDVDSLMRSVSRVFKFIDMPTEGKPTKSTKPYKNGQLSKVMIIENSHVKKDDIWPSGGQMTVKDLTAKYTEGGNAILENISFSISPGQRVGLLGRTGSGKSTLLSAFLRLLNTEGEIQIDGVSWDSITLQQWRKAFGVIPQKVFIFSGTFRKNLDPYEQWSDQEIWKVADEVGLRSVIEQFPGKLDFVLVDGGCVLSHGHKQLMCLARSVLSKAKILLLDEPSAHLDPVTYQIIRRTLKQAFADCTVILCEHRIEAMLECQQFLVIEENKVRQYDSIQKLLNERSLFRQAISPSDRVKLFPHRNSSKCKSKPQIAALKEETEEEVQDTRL

| EC30 | SMILES |
| --- | --- |
| +++ (“+++” means <3 uM) | CC1CN(c2ncccc2C(=O)NS(=O)(=O)c2cccc(OC(C)c3ccccc3)n2)C(C)(C)C1 (stereo not drawn) [Compound 1917, N—[[6-(1-phenylethoxy)-2-pyridyl]sulfonyl]-2-(2,2,4-trimethylpyrrolidin-1-yl)pyridine-3-carboxamide] |
| +++ (“+++” means <3 uM) | CC1CN(c2ncccc2C(=O)NS(=O)(=O)c2cccc(OC(C)C3CCCCC3)n2)C(C)(C)C1 (stereo not drawn) [Compound 1919, N—[[6-(1-cyclohexylethoxy)-2-pyridyl]sulfonyl]-2-(2,2,4-trimethylpyrrolidin-1-yl)pyridine-3-carboxamide] |
| ++ (“++” means between 3 uM and 10 uM) | COC1CC=C(c2cnc(N3CC(C)CC3(C)C)c(C(=O)NS(=O)(=O)c3cccc(N)n3)c2)CC1 (stereo not drawn) [Compound 1920, N-[(6-amino-2-pyridyl)sulfonyl]-5-(4-methoxycyclohexen-1-yl)-2-(2,2,4-trimethylpyrrolidin-1-yl)pyridine-3-carboxamide] |
| +++ (“+++” means <3 uM) | CC1CN(c2ncc(-c3ccccc3C(F)(F)F)cc2C(=O)NS(=O)(=O)c2cccc(N)n2)C(C)(C)C1 (stereo not drawn) [Compound 1921, N-[(6-amino-2-pyridyl)sulfonyl]-5-[2-(trifluoromethyl)phenyl]-2-(2,2,4-trimethylpyrrolidin-1-yl)pyridine-3-carboxamide] |
| +++ (“+++” means <3 uM) | Cc1ccc(-c2ccc(C(=O)NS(=O)(=O)c3cccc(N)n3)c(N3C[C@@H](C)CC3(C)C)n2)cc1F [Compound 1922, N-[(6-amino-2-pyridyl)sulfonyl]-6-(3-fluoro-4-methyl-phenyl)-2-[(4S)-2,2,4-trimethylpyrrolidin-1-yl]pyridine-3-carboxamide] |
| ++ (“++” means between 3 uM and 10 uM) | Cc1cc(-c2ccc(C(=O)NS(=O)(=O)c3cccnc3N)c(N3C[C@@H](C)CC3(C)C)n2)cc(C)c1O [Compound 1923, N-[(2-amino-3-pyridyl)sulfonyl]-6-(4-hydroxy-3,5-dimethyl-phenyl)-2-[(4S)-2,2,4-trimethylpyrrolidin-1-yl]pyridine-3-carboxamide] |
| +++ (“+++” means <3 uM) | CCOc1ccc(Oc2cccc(S(=O)(=O)NC(=O)c3cccnc3N3CC(C)CC3(C)C)n2)cc1 (stereo not drawn) [Compound 1924, N—[[6-(4-ethoxyphenoxy)-2-pyridyl]sulfonyl]-2-(2,2,4-trimethylpyrrolidin-1-yl)pyridine-3-carboxamide] |

Further lines, the molecule ahead of its results:

| SMILES | EC30 |
| --- | --- |
| COc1cc(F)c(F)cc1-c1ccc(C(=O)NS(=O)(=O)c2ccc[nH]c2=O)c(N2C[C@@H](C)CC2(C)C)n1 [Compound 1904, 6-(4,5-difluoro-2-methoxy-phenyl)-N-[(2-oxo-1H-pyridin-3-yl)sulfonyl]-2-[(4S)-2,2,4-trimethylpyrrolidin-1-yl]pyridine-3-carboxamide] | +++ (“+++” means <3 uM) |
| CC1CN(c2ncccc2C(=O)NS(=O)(=O)c2cccc(NC(C)c3ccccc3)n2)C(C)(C)C1 (stereo not drawn) [Compound 1905, N—[[6-(1-phenylethylamino)-2-pyridyl]sulfonyl]-2-(2,2,4-trimethylpyrrolidin-1-yl)pyridine-3-carboxamide] | +++ (“+++” means <3 uM) |
| CC1CN(c2ncccc2C(=O)NS(=O)(=O)c2cccc(Nc3cccc(Cl)c3Cl)n2)C(C)(C)C1 (stereo not drawn) [Compound 1906, N—[[6-(2,3-dichloroanilino)-2-pyridyl]sulfonyl]-2-(2,2,4-trimethylpyrrolidin-1-yl)pyridine-3-carboxamide] | +++ (“+++” means <3 uM) |
| CCN(CC)c1nc(-c2ccc(C(=O)NS(=O)(=O)c3cccc(N)n3)c(N3CC(C)CC3(C)C)n2)ccc1C (stereo not drawn) [Compound 1907, N-[(6-amino-2-pyridyl)sulfonyl]-6-[6-(diethylamino)-5-methyl-2-pyridyl]-2-(2,2,4-trimethylpyrrolidin-1-yl)pyridine-3-carboxamide] | +++ (“+++” means <3 uM) |
| CC1CN(c2ncccc2C(=O)NS(=O)(=O)c2cccc(OC3CCCCC3)n2)C(C)(C)C1 (stereo not drawn) [Compound 1908, N—[[6-(cyclohexoxy)-2-pyridyl]sulfonyl]-2-(2,2,4-trimethylpyrrolidin-1-yl)pyridine-3-carboxamide] | +++ (“+++” means <3 uM) |
| CC1CN(c2ncccc2C(=O)NS(=O)(=O)c2cccc(Nc3ccc4c(c3)CCC4)n2)C(C)(C)C1 (stereo not drawn) [Compound 1909, N—[[6-(indan-5-ylamino)-2-pyridyl]sulfonyl]-2-(2,2,4-trimethylpyrrolidin-1-yl)pyridine-3-carboxamide] | +++ (“+++” means <3 uM) |
| Cc1ccc(-c2ccc(C(=O)NS(=O)(=O)c3cccc(N)n3)c(N3C[C@@H](C)CC3(C)C)n2)c(F)c1 [Compound 1910, N-[(6-amino-2-pyridyl)sulfonyl]-6-(2-fluoro-4-methyl-phenyl)-2-[(4S)-2,2,4-trimethylpyrrolidin-1-yl]pyridine-3-carboxamide] | +++ (“+++” means <3 uM) |
| CC(C)C(C)c1ccc(C(=O)NS(=O)(=O)c2cccnc2N)c(N2C[C@@H](C)CC2(C)C)n1 (stereo partly drawn) [Compound 1911, N-[(2-amino-3-pyridyl)sulfonyl]-6-(1,2-dimethylpropyl)-2-[(4S)-2,2,4-trimethylpyrrolidin-1-yl]pyridine-3-carboxamide] | +++ (“+++” means <3 uM) |
| CC(C)COc1cnn(-c2ccc(C(=O)NS(=O)(=O)c3ccccc3)c(N3C[C@@H](C)CC3(C)C)n2)c1 [Compound 1912, N-(benzenesulfonyl)-6-(4-isobutoxypyrazol-1-yl)-2-[(4S)-2,2,4-trimethylpyrrolidin-1-yl]pyridine-3-carboxamide] | +++ (“+++” means <3 uM) |
| COc1cc(F)c(-c2ccc(C(=O)NS(=O)(=O)c3ccc[nH]c3=O)c(N3C[C@@H](C)CC3(C)C)n2)cc1F [Compound 1913, 6-(2,5-difluoro-4-methoxy-phenyl)-N-[(2-oxo-1H-pyridin-3-yl)sulfonyl]-2-[(4S)-2,2,4-trimethylpyrrolidin-1-yl]pyridine-3-carboxamide] | +++ (“+++” means <3 uM) |
| COc1cc(-c2ccc(C(=O)NS(=O)(=O)c3ccc[nH]c3=O)c(N3C[C@@H](C)CC3(C)C)n2)cc(F)c1F [Compound 1914, 6-(3,4-difluoro-5-methoxy-phenyl)-N-[(2-oxo-1H-pyridin-3-yl)sulfonyl]-2-[(4S)-2,2,4-trimethylpyrrolidin-1-yl]pyridine-3-carboxamide] | +++ (“+++” means <3 uM) |
| CCN(CC)c1ncc(-c2ccc(C(=O)NS(=O)(=O)c3cccc(N)n3)c(N3C[C@@H](C)CC3(C)C)n2)cc1C [Compound 1915, N-[(6-amino-2-pyridyl)sulfonyl]-6-[6-(diethylamino)-5-methyl-3-pyridyl]-2-[(4S)-2,2,4-trimethylpyrrolidin-1-yl]pyridine-3-carboxamide] | +++ (“+++” means <3 uM) |
| CCCC/C=C/c1cnc(N2CC(C)CC2(C)C)c(C(=O)NS(=O)(=O)c2cccc(N)n2)c1 (stereo not drawn) [Compound 1916, N-[(6-amino-2-pyridyl)sulfonyl]-5-[(E)-hex-1-enyl]-2-(2,2,4-trimethylpyrrolidin-1-yl)pyridine-3-carboxamide] | +++ (“+++” means <3 uM) |
| CC1CN(c2ncc(-c3cccc(OC4CCCC4)c3)cc2C(=O)NS(=O)(=O)c2cccc(N)n2)C(C)(C)C1 (stereo not drawn) [Compound 1918, N-[(6-amino-2-pyridyl)sulfonyl]-5-[3-(cyclopentoxy)phenyl]-2-(2,2,4-trimethylpyrrolidin-1-yl)pyridine-3-carboxamide] | +++ (“+++” means <3 uM) |
